Data: patent publication US20020094524A1, “Compositions and methods for inhibiting HIV infection” (priority 2000, published 2002)

Legend:
HIV gag mRNA = HIV gag mRNA by RT-PCR / real time RT-PCR in infected MDM; type: cell-based
Protocol: HIV Infection: After 2 h incubation with or without the reagents described above, the cells were infected with equal amounts of cell-free HIV based on p24 antigen content (20 ng/10^6 cells) overnight, and then washed to remove unbound virus. Fresh media containing SP and/or CP-96,345 or anti-SP antibody were added to the MDM as described above. The culture media and the reagents were replaced twice weekly. The culture supernatants were harvested for HIV reverse transcriptase (RT) activity determinations. After HIV infection, the MDM were incubated for 8 to 12 days. At the termination of the experiments, cellular RNA was extracted for assessment of HIV gag gene expression using RT-PCR or real time RT-PCR assays.
Total RNA was isolated from human peripheral blood MDM (10^6 cells) using Tri-Reagent (Molecular Research Center, Cincinnati, Ohio) as we previously reported (16).
Reverse transcription: Total RNA (1 μg) was reverse transcribed using Reverse Transcription System (Promega, Madison, Wis.) with the specific primers (antisense) for HIV gag (5′-[…]-[…]-3′; SEQ ID NO: 1) (27) or CCR5 (5′-[…]-3′; SEQ ID NO: 2) (32) for 1 h at 42° C. RT reactions was terminated by incubating the reaction mixture at 99° C. for 5 min and then kept at 4° C. The resulting cDNA was used as a template for PCR amplification or real time PCR quantification. […]

HIV Bal strain = assay: HIV-induced syncytia formation in MDM; type: cell-based; conditions: 10^−7M; 12 days after infection (FIG. 2)
Protocol: Syncytia formation: To study the effect of neuropeptide antagonists on HIV-induced syncytia formation in MDM, 7-day-cultured macrophages were incubated in the presence or absence of CP-96,345 (10^−7M) for 2 h and then infected with HIV Bal strain. MDM which were neither incubated with CP-96,345 nor infected with HIV were used as a cell culture control. The morphology of HIV-induced syncytia formation was observed and photographed by a light microscopy (×400) 12 days after HIV infection.

COc1ccccc1CN[C@H]1C2CCN(CC2)[C@H]1C(c1ccccc1)c1ccccc1 [CP-96,345, 2S, 3S)-cis-2-(diphenylmethyl)-N-[(2-methoxyphenyl)-methyl]-1-azabicyclo[[2.2.2]octan-3-amine]
HIV gag mRNA expression (RT-PCR) (HIV gag mRNA; 10^−11 to 10^−7 M, 12 days after infection, concentration-dependent (FIG. 3 top panel)): potently inhibited | HIV gag gene mRNA expression (real time RT-PCR copy numbers) (HIV gag mRNA; all three concentrations tested, 12 days after infection (FIG. 3)): significantly suppress | HIV-induced giant syncytia formation in MDM (HIV Bal strain): failed to develop the giant syncytia
